Measurements: patent publication US20250161453A1, “LIGHT-ACTIVATABLE, SUSTAINED-EXPOSURE ETHANOL INJECTION” (University of Maryland, College Park, priority 2022, published 2025)

Tests used:
[1] = Singlet oxygen production (Singlet Oxygen Sensor Green) in phantom punch biopsies; conditions: 20 μM
Protocol: For the tumor-mimicking mechanical phantom, 5 mm-deep portions of the phantom were removed via a biopsy tool with a diameter of 6.4 mm and placed into a 96-well, clear flat-bottom microplate. Singlet oxygen production was determined using Singlet Oxygen Sensor Green (SOSG) and a microplate reader before irradiation. The SOSG fluorescence was measured with excitation/emission wavelengths of 504/525 nm. The samples were then irradiated with a 690 nm continuous-wave laser at various radiant exposures, and singlet oxygen production was measured using SOSG and the microplate reader after irradiation. The difference between the obtained SOSG fluorescence values between pre- and post-irradiance samples constituted the relative singlet oxygen production of that particular punch biopsy sample.
Table 4 details a strategy for measuring the singlet oxygen production of a sample (e.g., phantom specimen from a punch biopsy). […] 0 μM (EC-Ethanol only), phantom only, and BPD only (dissolved in DMSO) groups were included as negative controls, while the Rose Bengal group (type II photosensitizer capable of generating singlet oxygen via 525 nm light absorption) was included as a positive control. This strategy can be applied to estimate the relative production of singlet oxygen of photosensitizers in other liquid needle injections.
Upon red light (690 nm) activation of BPD-EC-EtOH, the fluorescence signal generated from BPD can be used for imaging of the depot, as shown in FIG. 6E.

[2] = Stability of BPD stock solution; format: physicochemical; conditions: 5 mg BPD powder in 1 mL dimethyl sulfoxide, wrapped in aluminum foil
Protocol: To prepare the BPD stock solution, 5 mg of the BPD powder was dissolved with 1 mL of dimethyl sulfoxide in a 2 mL cryovial container. The molarity of the sample was confirmed with a microplate reader using the established molar extinction coefficient of BPD in dimethyl sulfoxide (DMSO; ˜34,895 M^−1 cm^−1 at 687 nm). The container was wrapped in aluminum foil and stored in a −20° C. freezer.

Compound: O=C([O-])c1c(Cl)c(Cl)c(Cl)c(Cl)c1-c1c2cc(I)c(=O)c(I)c-2oc2c(I)c([O-])c(I)cc12.[Na+].[Na+] [Rose Bengal]
- Post-irradiation RFU ([1]; SOSG fluorescence 504/525 nm): 64703 RFU
- Pre-irradiation RFU ([1]; SOSG fluorescence 504/525 nm): 18345 RFU
- Relative singlet oxygen production (SOSG fluorescence difference) ([1]; difference post- minus pre-irradiation): 46358 RFU

Compound: benzoporphyrin derivative [BPD]
- stability of reconstituted stock solution (in words) [2]: generally stable at −20 °C for several months
